# Data taken from PubChem BioAssay (NCI).
#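 Compound exposure: 48 hours, 5 concentrations, 96-well plates. GI50 is the concentration that inhibits growth by half. TGI: concentration producing complete growth inhibition.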
# Experiments:
# Assay in all cases: growth of human tumour cells (NCI), 48 h
# 786-0 renal = system: 786-0 renal
# A498 renal = system: A498 renal
# A549 NSCLC = system: A549 NSCLC
# ACHN renal = system: ACHN renal
# BT-549 breast = system: BT-549 breast
# CAKI-1 renal = system: CAKI-1 renal
# CCRF-CEM leukemia = system: CCRF-CEM leukemia
# COLO 205 colon = system: COLO 205 colon
# DU-145 prostate = system: DU-145 prostate
# EKVX NSCLC = system: EKVX NSCLC
# HCC-2998 colon = system: HCC-2998 colon
# HCT-116 colon = system: HCT-116 colon
# HCT-15 colon = system: HCT-15 colon
# HL-60(TB) leukemia = system: HL-60(TB) leukemia
# HOP-62 NSCLC = system: HOP-62 NSCLC
# HOP-92 NSCLC = system: HOP-92 NSCLC
# HS 578T breast = system: HS 578T breast
# HT29 colon = system: HT29 colon
# IGROV1 ovarian = system: IGROV1 ovarian
# K-562 leukemia = system: K-562 leukemia
# KM12 colon = system: KM12 colon
# M14 melanoma = system: M14 melanoma
# MALME-3M melanoma = system: MALME-3M melanoma
# MCF7 breast = system: MCF7 breast
# MDA-MB-231 breast = system: MDA-MB-231 breast
# MDA-MB-435 = system: MDA-MB-435
# MOLT-4 leukemia = system: MOLT-4 leukemia
# NCI-H226 lung = system: NCI-H226 lung
# NCI-H23 lung = system: NCI-H23 lung
# NCI-H460 lung = system: NCI-H460 lung
# NCI-H522 lung = system: NCI-H522 lung
# NCI/ADR-RES ovarian = system: NCI/ADR-RES ovarian
# OVCAR-4 ovarian = system: OVCAR-4 ovarian
# OVCAR-5 ovarian = system: OVCAR-5 ovarian
# OVCAR-8 ovarian = system: OVCAR-8 ovarian
# PC-3 prostate = system: PC-3 prostate
# RPMI-8226 leukemia = system: RPMI-8226 leukemia
# RXF 393 renal = system: RXF 393 renal
# SF-268 CNS = system: SF-268 CNS
# SF-295 CNS = system: SF-295 CNS
# SF-539 CNS = system: SF-539 CNS
# SK-MEL-2 melanoma = system: SK-MEL-2 melanoma
# SK-MEL-28 melanoma = system: SK-MEL-28 melanoma
# SK-MEL-5 melanoma = system: SK-MEL-5 melanoma
# SK-OV-3 ovarian = system: SK-OV-3 ovarian
# SN12C renal = system: SN12C renal
# SNB-19 CNS = system: SNB-19 CNS
# SNB-75 CNS = system: SNB-75 CNS
# SR leukemia = system: SR leukemia
# SW-620 colon = system: SW-620 colon
# T-47D breast = system: T-47D breast
# TK-10 renal = system: TK-10 renal
# U251 CNS = system: U251 CNS
# UACC-257 melanoma = system: UACC-257 melanoma
# UACC-62 melanoma = system: UACC-62 melanoma
# UO-31 renal = system: UO-31 renal
compound,measurement,setting,value
O=C(c1ccc(Oc2ccccc2)cc1Cl)c1c[nH]c2ncnc(N[C@@H]3CC[C@@H](CO)OC3)c12,GI50,786-0 renal,1580 nM
same,TGI,786-0 renal,9350 nM
same,GI50,A498 renal,295 nM
same,TGI,A498 renal,1280 nM
same,GI50,A549 NSCLC,724 nM
same,TGI,A549 NSCLC,9920 nM
same,GI50,ACHN renal,260 nM
same,TGI,ACHN renal,10500 nM
same,GI50,BT-549 breast,1660 nM
same,TGI,BT-549 breast,4170 nM
same,GI50,CAKI-1 renal,398 nM
same,TGI,CAKI-1 renal,5360 nM
same,GI50,CCRF-CEM leukemia,3210 nM
same,TGI,CCRF-CEM leukemia,20900 nM
same,GI50,COLO 205 colon,31.1 nM
same,TGI,COLO 205 colon,351 nM
same,GI50,DU-145 prostate,688 nM
same,TGI,DU-145 prostate,6960 nM
same,GI50,EKVX NSCLC,641 nM
same,TGI,EKVX NSCLC,9420 nM
same,GI50,HCC-2998 colon,199 nM
same,TGI,HCC-2998 colon,5560 nM
same,GI50,HCT-116 colon,244 nM
same,TGI,HCT-116 colon,1420 nM
same,GI50,HCT-15 colon,885 nM
same,TGI,HCT-15 colon,10800 nM
same,GI50,HL-60(TB) leukemia,200 nM
same,TGI,HL-60(TB) leukemia,1970 nM
same,GI50,HOP-62 NSCLC,302 nM
same,TGI,HOP-62 NSCLC,11000 nM
same,GI50,HOP-92 NSCLC,74.5 nM
same,TGI,HOP-92 NSCLC,488 nM
same,GI50,HS 578T breast,1590 nM
same,TGI,HS 578T breast,5010 nM
same,GI50,HT29 colon,43.4 nM
same,TGI,HT29 colon,1470 nM
same,GI50,IGROV1 ovarian,84.2 nM
same,TGI,IGROV1 ovarian,1960 nM
same,GI50,K-562 leukemia,432 nM
same,TGI,K-562 leukemia,> 36300 nM
same,GI50,KM12 colon,37.7 nM
same,TGI,KM12 colon,2610 nM
same,GI50,M14 melanoma,21.3 nM
same,TGI,M14 melanoma,222 nM
same,GI50,MALME-3M melanoma,16.1 nM
same,TGI,MALME-3M melanoma,74.5 nM
same,GI50,MCF7 breast,1470 nM
same,TGI,MCF7 breast,13000 nM
same,GI50,MDA-MB-231 breast,320 nM
same,TGI,MDA-MB-231 breast,1740 nM
same,GI50,MDA-MB-435,109 nM
same,TGI,MDA-MB-435,10800 nM
same,GI50,MOLT-4 leukemia,1510 nM
same,TGI,MOLT-4 leukemia,8990 nM
same,GI50,NCI-H226 lung,1470 nM
same,TGI,NCI-H226 lung,23600 nM
same,GI50,NCI-H23 lung,703 nM
same,TGI,NCI-H23 lung,13700 nM
same,GI50,NCI-H460 lung,2510 nM
same,TGI,NCI-H460 lung,10700 nM
same,GI50,NCI-H522 lung,437 nM
same,TGI,NCI-H522 lung,5090 nM
same,GI50,NCI/ADR-RES ovarian,2300 nM
same,TGI,NCI/ADR-RES ovarian,10700 nM
same,GI50,OVCAR-4 ovarian,5020 nM
same,TGI,OVCAR-4 ovarian,23000 nM
same,GI50,OVCAR-5 ovarian,255 nM
same,TGI,OVCAR-5 ovarian,2750 nM
same,GI50,OVCAR-8 ovarian,1330 nM
same,TGI,OVCAR-8 ovarian,11200 nM
same,GI50,PC-3 prostate,3160 nM
same,TGI,PC-3 prostate,13500 nM
same,GI50,RPMI-8226 leukemia,1760 nM
same,TGI,RPMI-8226 leukemia,9530 nM
same,GI50,RXF 393 renal,748 nM
same,TGI,RXF 393 renal,2770 nM
same,GI50,SF-268 CNS,1410 nM
same,TGI,SF-268 CNS,16300 nM
same,GI50,SF-295 CNS,2450 nM
same,TGI,SF-295 CNS,15300 nM
same,GI50,SF-539 CNS,1360 nM
same,TGI,SF-539 CNS,4850 nM
same,GI50,SK-MEL-2 melanoma,229 nM
same,TGI,SK-MEL-2 melanoma,876 nM
same,GI50,SK-MEL-28 melanoma,35 nM
same,TGI,SK-MEL-28 melanoma,465 nM
same,GI50,SK-MEL-5 melanoma,771 nM
same,TGI,SK-MEL-5 melanoma,3560 nM
same,GI50,SK-OV-3 ovarian,351 nM
same,TGI,SK-OV-3 ovarian,2090 nM
same,GI50,SN12C renal,413 nM
same,TGI,SN12C renal,11400 nM
same,GI50,SNB-19 CNS,1810 nM
same,TGI,SNB-19 CNS,15300 nM
same,GI50,SNB-75 CNS,1110 nM
same,TGI,SNB-75 CNS,3270 nM
same,GI50,SR leukemia,2630 nM
same,TGI,SR leukemia,19600 nM
same,GI50,SW-620 colon,397 nM
same,TGI,SW-620 colon,11600 nM
same,GI50,T-47D breast,908 nM
same,TGI,T-47D breast,6830 nM
same,GI50,TK-10 renal,231 nM
same,TGI,TK-10 renal,1670 nM
same,GI50,U251 CNS,1200 nM
same,TGI,U251 CNS,14100 nM
same,GI50,UACC-257 melanoma,38.9 nM
same,TGI,UACC-257 melanoma,395 nM
same,GI50,UACC-62 melanoma,20.9 nM
same,TGI,UACC-62 melanoma,173 nM
same,GI50,UO-31 renal,479 nM
same,TGI,UO-31 renal,5560 nM
